Data on 2 compounds can be found in patent publication US10080756B2, “Combination methods for treating cancers” (Gilead Sciences, Inc., priority 2014, dated 2018).

Each structure is given as a SMILES string. Like-named read-outs stand apart in the source and are kept apart here.

One series concerns DHL-10. As to the kind of experiment: Cell Titer Glo viability assay, DHL-10, alone or with compound of Formula I (Example 3). The procedure:
All procedures were performed at Gilead Sciences, Inc. in Branford, Conn. […] Compound plates were diluted 1:100 in RPMI without serum or additives but containing either 1% DMSO or 3 μM of the compound of Formula I creating a 10× stock. The DLBCL cell line, DHL-10 was plated at 10,000 cells per well in RPMI supplemented with 10% FBS and 100 U/L penicillin-streptomycin. To each well containing cells, 11 μl of 10× compound mixture in serum-free media was added in a final concentration of 0.2% DMSO and cells were incubated at 37° C. in 5% CO2 for 72 hours. Cell viability was assessed using Cell Titer Glo (CTG, Promega, Madison, Wis.) following the manufacturer's protocol on an Envision plate reader (Perkin Elmer, Waltham, Mass.). CTG signals were recorded for individual compound treatments and combinations. EC50 values were determined using a four parameter variable slope model with GraphPad Prism 6.0 software.

The nature of series [1]: Plasma levels in SU-DHL-10 xenograft study. The format is in vivo, mouse. The procedure:
On the 16th day post-tumor implantation, animals with established tumors (n=9 animals per group) were treated for 3 days by oral gavage with either vehicle or Entospletinib at 75 mg/kg or 25 mg/kg twice daily (BID). […] This dose level is designated 75/50 mg/kg.
Efficacy was evaluated by tumor volume measurements. Plasma levels of Entospletinib and vincristine were evaluated on the third day of dosing Entospletinib (Day 19) and the last day of dosing (Day 32). Tolerability was evaluated by daily observations, body weight (3 times per week) and circulating blood cell counts at the end of the study.

With `CC[C@]1(O)C[C@H]2CN(CCc3c([nH]c4ccccc34)[C@@](C(=O)OC)(c3cc4c(cc3OC)N(C=O)[C@H]3[C@@](O)(C(=O)OC)[C@H](OC(C)=O)[C@]5(CC)C=CCN6CC[C@]43[C@@H]65)C2)C1` [Vincristine, vincristine], the EC50 in the series with DHL-10 (Homo sapiens, 72 h, read-out: Inhibition of cell viability EC50, No Compound of Formula I) was determined as 14.1 nM; with DHL-10 (read-out: Inhibition of cell viability EC50, +300 nM Compound of Formula I, DHL-10, in combination with 300 nM compound of Formula I, 72 hours), 3.5 nM.
As to `c1cn2cc(-c3ccc4cn[nH]c4c3)nc(Nc3ccc(N4CCOCC4)cc3)c2n1` [Compound of Formula I, 6-(1H-indazol-6-yl)-N-(4-morpholinophenyl)imidazo[1,2-a]pyrazin-8-amine], the “plasma concentrations on the third day of dosing” value in series [1] (75 mg/kg BID) is recorded as “higher than planned plasma concentrations”. For the same compound, in series [1] (25 and 50 mg/kg BID, respectively, compared with mouse whole blood values for inhibition of SYK), the “plasma concentrations at the end of study at Cmin (trough)” value is “exceed the in vitro pervanadate-stimulated mouse whole blood EC50 and EC50 values for inhibition of SYK”.
